{"source": "patent US20240156764A1", "about": "“INHIBITION OF URACIL DNA GLYCOSYLASE IN THE OPEN CONFORMATION” (CASE WESTERN RESERVE UNIVERSITY, priority 2022, published 2024)", "key": {"human UDG [1]": {"target": "T1, human UDG (Homo sapiens, UniProt P13051)", "assay": "UDG protein thermal shift with Sypro orange dye", "type": "binding", "conditions": "100 μM ATA", "description": "The data for thermophoresis was recorded at 20° C. using the blue LED at 20% and IR-Laser at 40%. The isotherm derived from the raw data and fitted according to the law of mass action. […] Then 2 μL of 10× Sypro dye and 2 μL of ddH20 (Applied biosystems cat #4461141) were added. Monitoring of fluorescence took place for 2 hr (Bioraid CFX96, Hex filter, 25-97° C., 1.6° C./2 min). Negative (−) derivative RFU raw data and plots from the machine were obtained and analyzed. […] Melting temperature (Tm) value was taken directly from the midpoint on the −dRFU/dt vs. temperature graph. Each point on the graph represents an average of three data sets. Y error bars represent the standard deviation.\nFIGS. 10(A-D) illustrate UDG thermal shift. A: Uracil DNA hairpin stabilizes UDG protein. […] Melting temperature (Tm) values were taken directly from lowest peak point on the negative dRFU/dt over temperature plots. B: (with uracil DNA): Parallel set of wells on the same plate included uracil-DNA harpin (final […]). Each plate was incubated 60 min at room temperature before the monitoring of fluorescence took place about 2 hr (Biorad CFX96, Hex filter, 25° C.-97C, 1.6° C./2 min). […] Each plate was incubated 60 min at room temperature before the monitoring of fluorescence took place about 2 hr (Biorad CFX96, Hex filter, 25° C.-97° C., increment of 1.6° C./2 min). […]"}, "[2]": {"system": "uracil removal in wild type HAP cells", "assay": "Host-cell reactivation assay, uracil removal, wild type HAP cells", "type": "cell-based, human", "conditions": "ATA 5.0 μM", "description": "A: MCF-7 cells were seeded at 50,000 cells per well in a 12-well plate. B: HAP cells (wild type or UNG gene knockout) were seeded at 75,000 cells per well in a 6-well plate. […] After 24 hours, cells were dissociated by trypsinization and analyzed by flow cytometry using an Atune NxT flow cytometer. Gating and compensation were determined by transfection of single-color controls. Reporter expression was calculated for each dose of ATA as previously described in publications and normalized to DMSO treatment.\nRemoval of uracil in cells was measured using a reporter plasmid containing a dU:dG base pair (referred to as BFP_U), as described previously. […] The reciprocal of BFP_U reporter expression was calculated for each experimental condition. […] This creates a premature stop codon, completely abolishing fluorescence. Removal of thymidine followed by insertion of dC opposite dG restores reporter fluorescence.\nHuman breast cancer MCF-7 cells were seeded at 50,000 cells per well in a 12-well plate, while HAP cells (wild type or UNG knockout) were seeded at 75,000 cells per well in a 6-well plate. […] After 24 hours, cells were dissociated by trypsinization and analyzed by flow cytometry using an Atune NxT flow cytometer. Gating and compensation were determined by transfection of single-color controls. […]"}, "human UDG [3]": {"target": "T1, human UDG", "assay": "Time course of human UDG activity on uracil DNA hairpin", "type": "biochemical", "parameters": "Bacterially expressed and purified full-length human UDG; made in house", "text": "RFU was monitored over time. Each point on plot represents an average of three replicates. Error bar represents standard deviation from the mean. […] Each data point on the plot is the average of 3 wells (DMSO condition). Error bars represent standard deviation from the mean. […] UDG protein was not added to each reaction. […] Fluorescently labeled FAM-uDNA hairpin was monitored over the melting of the DNA hairpin. […] Each point represents an average of 4 experimental wells. Y Error bars represent the standard deviation from the mean.\nTo better examine UDG inhibitor activity, we monitored human UDG activity over time."}}}
{"smiles": "O=C(O)C1=CC(=C(c2ccc(O)c(C(=O)O)c2)c2ccc(O)c(C(=O)O)c2)C=CC1=O", "note": "[ATA, aurintricarboxylic acid]", "values": [{"measurement": "average maximum Tm change for UDG", "setting": "human UDG [1]; absence of uracil containing DNA", "value": "~3.0", "unit": "°C"}, {"measurement": "change of Tm of UDG protein", "setting": "human UDG [1]; with 1.0 mM uracil DNA hairpin", "value": "did not further change the Tm"}, {"measurement": "reduction of uracil removal in wild type cells", "setting": "[2]", "value": 1.8, "unit": "fold"}, {"measurement": "share of the effect of UDG knockout", "setting": "[2]", "value": 60, "unit": "%"}, {"measurement": "reduction of UDG-mediated un-quenching of u-DNA hairpin", "setting": "human UDG [3]; ATA below 250 nM, fixed DNA substrate, 5-hour time course", "value": "unable to significantly compete"}, {"measurement": "UDG activity over time", "setting": "human UDG [3]; ATA fixed dose of 500 nM, range of uracil DNA hairpin concentrations", "value": "persistently diminished UDG activity"}]}
